In patent US20250197799A1, “CELLS DERIVED FROM POLYPEDILUM VANDERPLANKI AND ODOR SENSOR EQUIPPED THEREWITH” (University of Maryland, College Park, priority 2022, published 2025):

Experiments:
[1] = target: T1, Orco-Or47a (Drosophila melanogaster, UniProt P81921+Q9VNB5); test: Response after rehydration with cycloheximide treatment, Orco-Or47a stable expression cell line; format: cell-based; parameters: remnant residues; expressed in transfected cells; host or cells: Pv11 cells (Polypedilum vanderplanki), CRIS-PITCh knock-in at the Pv.00443 locus downstream of the 121 promoter, Zeocin selection and single-cell sorting
T1 sequence (Q9VNB5 1-486): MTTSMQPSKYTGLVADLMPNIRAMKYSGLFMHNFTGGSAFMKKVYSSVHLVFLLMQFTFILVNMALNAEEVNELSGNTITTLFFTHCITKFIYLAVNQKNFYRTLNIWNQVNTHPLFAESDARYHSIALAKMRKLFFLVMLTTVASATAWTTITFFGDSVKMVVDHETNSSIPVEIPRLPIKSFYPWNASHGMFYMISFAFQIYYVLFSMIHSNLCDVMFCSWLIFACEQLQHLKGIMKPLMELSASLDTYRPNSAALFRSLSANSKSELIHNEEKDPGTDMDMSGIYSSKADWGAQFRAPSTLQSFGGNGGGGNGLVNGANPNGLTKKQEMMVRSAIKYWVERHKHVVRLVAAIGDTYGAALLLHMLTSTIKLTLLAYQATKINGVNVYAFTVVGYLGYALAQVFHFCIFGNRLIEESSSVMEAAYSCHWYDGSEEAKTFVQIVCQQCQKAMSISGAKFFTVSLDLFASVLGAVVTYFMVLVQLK
T1 sequence (P81921 1-385): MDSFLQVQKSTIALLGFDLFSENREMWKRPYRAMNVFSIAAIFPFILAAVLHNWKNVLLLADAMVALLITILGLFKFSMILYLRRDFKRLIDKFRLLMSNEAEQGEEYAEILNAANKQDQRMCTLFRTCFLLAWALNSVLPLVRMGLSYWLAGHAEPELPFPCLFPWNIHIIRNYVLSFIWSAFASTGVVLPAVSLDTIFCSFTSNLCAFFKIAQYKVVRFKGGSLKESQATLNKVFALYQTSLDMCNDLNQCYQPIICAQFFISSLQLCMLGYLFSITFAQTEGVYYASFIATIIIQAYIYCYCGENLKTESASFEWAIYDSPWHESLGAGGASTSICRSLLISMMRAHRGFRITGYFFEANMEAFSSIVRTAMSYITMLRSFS
Method: 7. Confirmation that exogenous membrane protein responses in Orco-Or47a stable expression cell lines immediately after rehydration are not due to de novo protein synthesis. To confirm that the membrane protein response of the Orco-Or47a stable expression cell line immediately after rehydration was not due to de novo protein synthesis, cells were treated with cycloheximide (CHX, a protein synthesis inhibitor).
A previous study reported that 0.35 mM of cycloheximide is able to inhibit protein production in Pv11 cells. Therefore, also in this experiment, cycloheximide was dissolved in IPL-41 medium so that the cycloheximide concentration was 0.35 mM. An IPL-41 medium with 0.01 mM, 0.07 mM and 0.7 mM cycloheximide was also prepared. The rehydration of dried cells was performed using 1 ml of I PL-41 medium containing cycloheximide. One hour after rehydration and 24 hours after rehydration, the same operation as in 3.6 above was performed, and the fluorescence intensity was measured and analyzed. The ΔF/F0 was as described above. FIG. 7A and FIG. 7B are graphs showing changes in fluorescence intensity of the Orco-Or47a stable expression cell line response to VUAA1 and pentyl acetate, respectively, one hour after drying and rehydration. FIGS. 7C and 7D are graphs showing changes in fluorescence intensity, respectively, in response to VUAA1 and pentyl acetate of Orco-Or47a stable expression cell lines 24 hours after drying and rehydration.

[2] = target: T1, Orco-Or47a; test: Functional confirmation of exogenous membrane proteins in Orco-Or47a stable expression cell line; format: cell-based; parameters: remnant residues; expressed in transfected cells; conditions: VUAA1 final 100 μM; pentyl acetate final 1 mM; DMSO negative control
Method: 3.2 The functionality of GCaMP6f. The functionality of GCaMP6f in the resulting cell lines was evaluated using Ionomycin (Ionomycin; Fujifilm Wako Pure Chemical) to increase the intracellular concentration of calcium ions to provide functional confirmation of exogenous proteins in the GCaMP6f stable-expressing cell line. Ionomycin was dissolved in dimethyl sulfoxide (DMSO; Fujifilm Wako Pure Chemical Industries, Ltd.), adjusted to a final DMSO concentration of 1% and an ionomycin final concentration of 1 μM in IP1-41 medium, and added to the cell solution. As a negative control, DMSO was adjusted to a final concentration of 1% in IP 1-41 medium and added to the cell solution. Bright-field images and fluorescence images (ex: 470/40 nm; em: 525/50 nm) of the cells before and after solution addition were taken (all-in-one fluorescence microscope BZ-X710, Keyence). […] For statistical analysis of fluorescence intensity, one-way ANOVA was performed using Prism8 (GraphPad), followed by Tukey's multiple comparison test as a post-hoc test,
3.3 Functional confirmation of exogenous membrane proteins in cell lines with stable expression of Orco-Or47a. The amount of fluorescence expression was confirmed by the same operation as in 3.2 above. […] Fluorescence images were taken at an excitation wavelength/emission wavelength of 488 nm/525 nm. […]

[3] = 1 hour after drying-rehydration
[4] = 24 hours after rehydration, without CHX

Row | SMILES | response as change in fluorescence intensity (ΔF/F0) [1, 3] | response as change in fluorescence intensity (ΔF/F0) [1, 4] | fluorescence intensity [2]
1 | CCc1ccc(NC(=O)CSc2nnc(-c3cccnc3)n2CC)cc1 [VUAA1, N-(4-ethylphenyl)-2-{[4-ethyl-5-(pyridin-3-yl)-4H-1,2,4-triazol-3-yl]sulfanyl}acetamide] | specific responses | strongly enhanced | increase in fluorescence intensity was observed
2 | CCCCCOC(C)=O [pentyl acetate] | specific responses | strongly enhanced | increase in fluorescence intensity was also observed
